IC50 data for 18 compounds are collected here from patent US20230066011A1, “PYRROLOPYRIMIDINE DERIVATIVE, AND PHARMACEUTICAL COMPOSITION FOR PREVENTING OR TREATING PROTEIN KINASE-RELATED DISEASE COMPRISING SAME AS ACTIVE INGREDIENT” (VORONOI CO., LTD., priority 2019, published 2023).

Common to all, as to format: biochemical
In experiment [1] the target is LRRK2 (Homo sapiens, UniProt Q5S007). The experiment can be described thus: LRRK2 enzyme inhibition, ADP-Glo kinase assay. Also noted: purchased Invitrogen PR8604B. The note with it: ATP 10 μM. The gist of the method:
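ADP-Glo luminescent read-out of ADP formed by purified human LRRK2 enzyme (25 ng), 10 μM ATP, 0.2 μg substrate, 25° C for 2 h, Tris-HCl pH 7.4 buffer with MgCl2, BSA, DTT. Inhibition versus untreated solvent control over twelve final concentrations (50 μM downward) gives IC50.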
(ADP-Glo first removes unused ATP, then detects ADP through luciferase.)

Experiment [2] has as its target T1, human GST-CLK1 (Homo sapiens, UniProt P49759).
T1 construct: purified human GST-CLK1 (129-end, SignalChem) enzyme; purchased SignalChem
The experiment can be described thus: GST-CLK1 enzyme inhibition, ADP-Glo kinase assay. The note with it: ATP 10 μM, GST-CLK1 129-end. The gist of the method:
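ADP-Glo luminescence read-out, relative to untreated solvent control, gave IC50 (nM) from triplicate data sets. Reactions ran an hour at 25° C with 3 ng GST-CLK1 (residues 129-end), 10 μM ATP and specific substrate in Tris-HCl pH 7.4 buffer with MgCl2, BSA and DTT.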

In experiment [3] the target is LRRK2 (G2019S) (Homo sapiens, UniProt Q5S007, G2019S). The experiment can be described thus: LRRK2 G2019S enzyme inhibition, ADP-Glo kinase assay. The note with it: ATP 25 μM. Also noted: purchased SignalChem L10-12GG. Put shortly:
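IC50 derived from luminescent ADP-Glo readout against untreated solvent control, twelve final compound concentrations from 50 μM downward. Reaction: recombinant human LRRK2 G2019S enzyme, 25 μM ATP, substrate, pH 7.4 Tris buffer with MgCl2/BSA/DTT, 25° C. for 2 hours.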

Experiment [4] has as its target T2, human GST-DYRK1A (Homo sapiens, UniProt Q13627).
T2 construct: purified human GST-DYRK1A (full length, Thermo Scientifics) enzyme; purchased Thermo Scientifics
Nature of the experiment: GST-DYRK1A enzyme inhibition, ADP-Glo kinase assay. Particulars: ATP 10 μM, GST-DYRK1A full length, read-out: DYRK1 IC50. The gist of the method:
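Full-length enzyme (10 ng) was incubated with 10 μM ATP and a specific substrate for 1 h at 25 °C in 40 mM Tris-HCl pH 7.4, 20 mM MgCl2, 0.5 mg/mL BSA, 50 μM DTT. Luminescence was read against a solvent control, and IC50 values were derived from 3 data sets.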

T1 sequence (P49759 129-484 limits assumed): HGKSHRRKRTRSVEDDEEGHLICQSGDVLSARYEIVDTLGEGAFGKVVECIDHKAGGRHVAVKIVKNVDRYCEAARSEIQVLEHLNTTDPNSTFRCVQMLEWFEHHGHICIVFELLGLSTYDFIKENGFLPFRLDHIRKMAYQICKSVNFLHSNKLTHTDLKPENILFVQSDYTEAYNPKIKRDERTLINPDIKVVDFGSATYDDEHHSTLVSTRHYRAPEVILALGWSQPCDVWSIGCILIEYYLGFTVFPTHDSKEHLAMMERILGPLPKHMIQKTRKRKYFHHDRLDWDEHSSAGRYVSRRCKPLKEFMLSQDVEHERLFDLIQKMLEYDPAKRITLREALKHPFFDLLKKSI
Sequence of LRRK2 (G2019S) (Q5S007 970-2527 G2019S limits assumed): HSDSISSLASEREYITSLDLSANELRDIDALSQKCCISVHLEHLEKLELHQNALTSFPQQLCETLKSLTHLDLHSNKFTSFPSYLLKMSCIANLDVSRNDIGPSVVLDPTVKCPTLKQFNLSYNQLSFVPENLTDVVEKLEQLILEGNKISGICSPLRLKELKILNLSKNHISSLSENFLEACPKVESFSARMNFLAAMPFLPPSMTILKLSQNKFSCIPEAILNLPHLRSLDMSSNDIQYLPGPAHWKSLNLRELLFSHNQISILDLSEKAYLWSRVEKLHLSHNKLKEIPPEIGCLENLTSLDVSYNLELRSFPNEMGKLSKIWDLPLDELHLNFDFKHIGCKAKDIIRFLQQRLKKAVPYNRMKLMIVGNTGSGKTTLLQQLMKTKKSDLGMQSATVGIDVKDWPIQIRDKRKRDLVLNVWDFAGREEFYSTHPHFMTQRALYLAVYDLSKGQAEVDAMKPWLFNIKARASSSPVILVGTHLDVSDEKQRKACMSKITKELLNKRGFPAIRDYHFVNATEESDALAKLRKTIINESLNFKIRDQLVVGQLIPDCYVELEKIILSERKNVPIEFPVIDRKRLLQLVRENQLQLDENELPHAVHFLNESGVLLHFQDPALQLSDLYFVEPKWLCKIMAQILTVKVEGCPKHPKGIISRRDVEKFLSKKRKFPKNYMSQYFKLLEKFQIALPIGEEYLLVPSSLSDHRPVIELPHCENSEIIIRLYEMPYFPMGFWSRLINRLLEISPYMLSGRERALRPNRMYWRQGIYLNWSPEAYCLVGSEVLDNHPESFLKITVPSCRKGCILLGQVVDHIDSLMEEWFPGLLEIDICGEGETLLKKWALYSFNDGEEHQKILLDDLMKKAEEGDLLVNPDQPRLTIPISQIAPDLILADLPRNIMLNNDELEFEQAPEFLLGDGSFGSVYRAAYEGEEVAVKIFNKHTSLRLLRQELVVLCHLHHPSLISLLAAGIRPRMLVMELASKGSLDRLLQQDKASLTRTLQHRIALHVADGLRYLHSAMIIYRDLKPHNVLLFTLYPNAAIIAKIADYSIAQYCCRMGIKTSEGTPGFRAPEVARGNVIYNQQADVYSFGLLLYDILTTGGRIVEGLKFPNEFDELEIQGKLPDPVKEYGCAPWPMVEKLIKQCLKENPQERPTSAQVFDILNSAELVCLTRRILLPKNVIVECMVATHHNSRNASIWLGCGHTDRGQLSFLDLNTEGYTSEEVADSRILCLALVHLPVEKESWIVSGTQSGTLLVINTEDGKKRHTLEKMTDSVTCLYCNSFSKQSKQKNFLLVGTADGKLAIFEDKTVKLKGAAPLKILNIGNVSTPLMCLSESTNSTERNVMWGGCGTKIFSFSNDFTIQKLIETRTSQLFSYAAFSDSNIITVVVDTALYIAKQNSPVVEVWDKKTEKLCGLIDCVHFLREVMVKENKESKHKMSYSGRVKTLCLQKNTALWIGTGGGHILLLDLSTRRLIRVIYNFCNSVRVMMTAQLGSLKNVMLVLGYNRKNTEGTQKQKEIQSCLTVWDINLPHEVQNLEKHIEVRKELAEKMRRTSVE
Sequence of LRRK2 (Q5S007 970-2527 limits assumed): as the sequence (Q5S007 970-2527 G2019S limits assumed) above, with S1050G counted along it

As for `N#Cc1c[nH]c2nc(Nc3ccc(C(=O)N4CCC(N5CCOCC5)CC4)c4c3OCCO4)nc(NC3CC3)c12` [Example 141, 4-(cyclopropylamino)-2-((8-(4-morpholinopiperidine-1-carbonyl)-2,3-dihydrobenzo[b][1,4]dioxin-5-yl)amino)-7H-pyrrolo[2,3-d]pyrimidine-5-carbonitrile], the half-maximal inhibitory concentration (IC50) in experiment [1] is below 100 nM; in experiment [2] it was below 100 nM; in experiment [3], below 100 nM; in experiment [4], 301 to 1000 nM.

As to `CCNc1nc(Nc2ccc(C(=O)N3CCC(N4CCOCC4)CC3)c3c2OCCO3)nc2[nH]cc(C(F)(F)F)c12` [Example 363, (8-((4-(ethylamino)-5-(trifluoromethyl)-7H-pyrrolo[2,3-d]pyrimidin-2-yl)amino)-2,3-dihydro-benzo[b][1,4]dioxin-5-yl)(4-morpholino-piperidin-1-yl)methanone], the IC50 in experiment [1] was below 100 nM; in experiment [2], below 100 nM; in experiment [3], below 100 nM; in experiment [4], 101 to 300 nM.

For the compound `COCC(C)(C)Nc1nc(Nc2ccc(S(C)(=O)=O)cc2OC)nc2[nH]cc(C(F)(F)F)c12` [Example 177, N^4-(1-methoxy-2-methylpropan-2-yl)-N^2-(2-methoxy-4-(methylsulfonyl)phenyl)-5-(trifluoromethyl)-7H-pyrrolo[2,3-d]pyrimidine-2,4-diamine], the IC50 in experiment [1], in experiment [2], in experiment [3] and in experiment [4] was 301 to 1000 nM throughout.

Take `C=CCNc1nc(Nc2ccc(S(=O)(=O)N3CCC(N4CCOCC4)CC3)cc2OC)nc2[nH]ccc12` [Example 247, N4-allyl-N2-(2-methoxy-4-((4-morpholinopiperidin-1-yl)sulfonyl)phenyl)-7H-pyrrolo[2,3-d]pyrimidine-2,4-diamine]: the IC50 in experiment [1] is below 100 nM; in experiment [2] it was 301 to 1000 nM; in experiment [3] it was below 100 nM; in experiment [4], 301 to 1000 nM.

For `O=C(c1ccc(Nc2nc(NC3CC3)c3c(C(F)(F)F)c[nH]c3n2)c2c1OCCO2)N1CCOCC1` [Example 182, (8-((4-(cyclopropylamino)-5-(trifluoromethyl)-7H-pyrrolo[2,3-d]pyrimidin-2-yl)amino)-2,3-dihydrobenzo[b][1,4]dioxin-5-yl)(morpholino)methanone], the IC50 in experiment [1] is below 100 nM; in experiment [2], 301 to 1000 nM; in experiment [3], below 100 nM; in experiment [4], 301 to 1000 nM.

As to `CC(C)Nc1nc(Nc2ccc(C(=O)N3CCOCC3)c3c2OCCO3)nc2[nH]cc(C#N)c12` [Example 122, 4-(isopropylamino)-2-((8-(morpholine-4-carbonyl)-2,3-dihydrobenzo[b][1,4]dioxin-5-yl)amino)-7H-pyrrolo[2,3-d]pyrimidine-5-carbonitrile], the IC50 in experiment [1] was below 100 nM; in experiment [2] it was below 100 nM; in experiment [3] it was below 100 nM; in experiment [4] it was 101 to 300 nM.

As for `CCNc1nc(Nc2ccc(C(=O)N3CCOCC3)c3c2OCCO3)nc2[nH]cc(C(F)(F)F)c12` [Example 156, (8-((4-(ethylamino)-5-(trifluoromethyl)-7H-pyrrolo[2,3-d]pyrimidin-2-yl)amino)-2,3-dihydrobenzo[b][1,4]dioxin-5-yl)(morpholino)methanone 2,2,2-trifluoroacetate], the IC50 was below 100 nM in experiment [1], below 100 nM in experiment [2], below 100 nM in experiment [3] and 101 to 300 nM in experiment [4].

With `CCNc1nc(Nc2ccc(C(=O)N3CCC(N4CCOCC4)CC3)c3c2OCCO3)nc2[nH]cc(C#N)c12` [Example 137, 4-(ethylamino)-2-((8-(4-morpholinopiperidine-1-carbonyl)-2,3-dihydrobenzo[b][1,4]dioxin-5-yl)amino)-7H-pyrrolo[2,3-d]pyrimidine-5-carbontrile], the IC50 is below 100 nM in experiment [1], below 100 nM in experiment [2], below 100 nM in experiment [3] and 101 to 300 nM in experiment [4].

Consider `CNc1nc(Nc2ccc(C(=O)N3CCOCC3)c3c2OCCO3)nc2[nH]ccc12` [Example 43, (8-((4-(methylamino)-7H-pyrrolo[2,3-d]pyrimidin-2-yl)amino)-2,3-dihydrobenzo[b][1,4]dioxin-5-yl)(morpholino)methanone], for which the IC50 in experiment [1] was below 100 nM; in experiment [2] it was 301 to 1000 nM; in experiment [3] it was below 100 nM; in experiment [4], 301 to 1000 nM.

As for `O=C(c1ccc(Nc2nc(NC3CC3)c3c(C(F)(F)F)c[nH]c3n2)c2c1OCCO2)N1CCC(N2CCOCC2)CC1` [Example 367, (8-((4-(cyclopropyl-amino)-5-(trifluoromethyl)-7H-pyrrolo[2,3-d]pyrimidin-2-yl)amino)-2,3-dihydrobenzo[b] [1,4]dioxin-5-yl)(4-morpho-linopiperidin-1-yl)methanone], the IC50 in experiment [1] is below 100 nM; in experiment [2] it was below 100 nM; in experiment [3], below 100 nM; in experiment [4], 101 to 300 nM.

As to `CCCNc1nc(Nc2ccc(C(=O)N3CCC(N4CCOCC4)CC3)c3c2OCCO3)nc2[nH]cc(C(F)(F)F)c12` [Example 364, (4-morpholino-piperidin-1-yl)(8-((4-(propylamino)-5-(trifluoromethyl)-7H-pyrrolo[2,3-d]pyrimidin-2-yl)amino)-2,3-dihydrobenzo[b] [1,4]dioxin-5-yl)methanone], the IC50 in experiment [1], in experiment [2], in experiment [3] and in experiment [4] was below 100 nM in each case.

Turning to `CCCNc1nc(Nc2ccc(C(=O)N3CCOCC3)c3c2OCCO3)nc2[nH]cc(C(F)(F)F)c12` [Example 162, morpholino(8-((4-(propylamino)-5-(trifluoromethyl)-7H-pyrrolo[2,3-d]pyrimidin-2-yl)amino)-2,3-dihydrobenzo[b][1,4]dioxin-5-yl)methanone], the IC50 is below 100 nM in experiment [1], 301 to 1000 nM in experiment [2], below 100 nM in experiment [3] and 301 to 1000 nM in experiment [4].

With `CNc1nc(Nc2ccc(S(=O)(=O)N3CCC(N4CCOCC4)CC3)cc2OC)nc2[nH]cc(C#N)c12` [Example 81, 2-((2-methoxy-4-((4-morpholinopiperidin-1-yl)sulfonyl)phenyl)amino)-4-(methylamino)-7H-pyrrolo[2,3-d]pyrimidine-5-carbonitrile], the IC50 in experiment [1] is below 100 nM; in experiment [2], below 100 nM; in experiment [3] it was below 100 nM; in experiment [4], 301 to 1000 nM.

Take `CCNc1nc(Nc2ccc(S(C)(=O)=O)cc2OC)nc2[nH]cc(C(F)(F)F)c12` [Example 159, N^4-ethyl-N^2-(2-methoxy-4-(methylsulfonyl)phenyl)-5-(trifluoromethyl)-7H-pyrrolo[2,3-d]pyrimidine-2,4-diamine]: the IC50 in experiment [1] was below 100 nM; in experiment [2], 301 to 1000 nM; in experiment [3], 301 to 1000 nM; in experiment [4] it was 301 to 1000 nM.

On to `COc1cc(S(=O)(=O)N2CCC(N3CCOCC3)CC2)ccc1Nc1nc(NCCS(C)(=O)=O)c2c(C#N)c[nH]c2n1` [Example 96, 2-((2-methoxy-4-((4-morpholinopiperidin-1-yl)sulfonyl)phenyl)amino)-4-((2-(methylsulfonyl)ethyl)amino)-7H-pyrrolo[2,3-d]pyrimidine-5-carbonitrile], for which the IC50 in experiment [1] is below 100 nM; in experiment [2], below 100 nM; in experiment [3] it was below 100 nM; in experiment [4], 301 to 1000 nM.

Consider `CCCNc1nc(Nc2ccc(C(=O)N3CCOCC3)c3c2OCCO3)nc2[nH]cc(C#N)c12` [Example 120, 2-((8-(morpholine-4-carbonyl)-2,3-dihydrobenzo[b][1,4]dioxin-5-yl)amino)-4-(propylamino)-7H-pyrrolo[2,3-d]pyrimidine-5-carbonitrile], for which the IC50 in experiment [1] is below 100 nM; in experiment [2], below 100 nM; in experiment [3], below 100 nM; in experiment [4], 101 to 300 nM.

Turning to `COc1cc(S(C)(=O)=O)ccc1Nc1nc(NC2CCCC2)c2c(C#N)c[nH]c2n1` [Example 106, 4-(cyclopentylamino)-2-((2-methoxy-4-(methylsulfonyl)phenyl)amino)-7H-pyrrolo[2,3-d]pyrimidine-5-carbonitrile], the IC50 is below 100 nM in experiment [1], 301 to 1000 nM in experiment [2], below 100 nM in experiment [3] and 301 to 1000 nM in experiment [4].

As for `CC(C)Nc1nc(Nc2ccc(C(=O)N3CCOCC3)c3c2OCCO3)nc2[nH]cc(C(F)(F)F)c12` [Example 167, (8-((4-(isopropylamino)-5-(trifluoromethyl)-7H-pyrrolo[2,3-d]pyrimidin-2-yl)amino)-2,3-dihydrobenzo[b][1,4]dioxin-5-yl)(morpholino)methanone], the IC50 in experiment [1] is below 100 nM; in experiment [2], 301 to 1000 nM; in experiment [3], below 100 nM; in experiment [4], 301 to 1000 nM.

In general, IC50 refers to the concentration needed to halve the response being measured.
